Patent US20260345507A1, “COMPOSITIONS AND METHODS FOR DELIVERY OF RNA” (REJUVENATION TECHNOLOGIES, INC., priority 2022, published 2026)

Key:
[1] = Pharmacokinetics of 5-lipid LNP (DOTAP by LC-MS/MS); assay type: in vivo, mouse; set-up: Decay constant: unit not given here; conditions: 1.0 mg mRNA/kg; for half-life: mouse, 1 mg/kg
Procedure: Methods: LNPs were formulated using lipid molar ratios in Table 1 with mRNA encoding human telomerase. CD1 male mice were dosed at 1.0 mg mRNA/kg of body weight, and plasma and tissue were collected at time points 0 (<5 min) and 24 hours. DOTAP was measured using LC-MS/MS. mRNA was measured by qRT-PCR. “Liver Rest” is the liver sample excluding the left lobe.

P21 = test: Senescence marker P21 in lung alveolar cells of bleomycin-treated mice; assay type: in vivo, mouse; conditions: following bleomycin treatment
Procedure: FIGS. 3-17 and FIGS. 20-21 depict experiments involving the use of a different 5 lipid LNP composition where lung fibrosis was induced in third generation (G3) TERT knock-out (KO) mice, which have telomere lengths that are similar to those of humans. Bleomycin was administered via oropharyngeal aspiration at 2.0 U/kg. For FIGS. 13-16, an initial dose of bleomycin was administered via oropharyngeal aspiration at 0.5 U/kg one week prior to the 2.0 U/kg dose. LNPs were formulated with firefly luciferase mRNA (Ctrl) or TERT mRNA (mouse SEQ ID NO: 2, including synthetic 5′ UTR (SEQ ID NO: 3), wt mTert coding sequence (SEQ ID NO: 4) and mouse alpha-globin 3′ UTR (SEQ ID NO: 5)) (referred to as “TERT mRNA LNP” herein or “TERT” or “TERT mRNA” in the figures) and the lipids in the ratios of Table 3. The DOTAP molar ratio is 2.27 times higher in the 5 lipid LNP of Table 3. Mice were dosed at 1.5 mg/kg twice a week for two weeks beginning on day 7 post bleomycin. Some mice received bleomycin, but not LNP treatment (No LNP), and control mice received saline instead of bleomycin and LNP treatment (No Bleo). Tissues were harvested on day 24 post bleomycin. Lungs were […]. […] Telomerase activity was measured in lung tissue lysate using the telomeric repeat amplification protocol (TRAP) assay. […]

[2] = Liver Left Lobe, dosed as 5-lipid LNP of Table 1, CD1 male mice
[3] = Liver Rest (liver excluding left lobe), 5-lipid LNP of Table 1, CD1 male mice
[4] = Lung Right Lobes, 5-lipid LNP of Table 1, CD1 male mice
[5] = Plasma, 5-lipid LNP of Table 1, CD1 male mice
[6] = Spleen, 5-lipid LNP of Table 1, CD1 male mice

## CCCCCCCC/C=C\CCCCCCCC(=O)OCC(C[N+](C)(C)C)OC(=O)CCCCCCC/C=C\CCCCCCCC (stereo not drawn) [DOTAP, 1,2-dioleoyl-3-trimethylammonium-propane]
[1]; [2]
  Decay constant: 0.066
  half-life: 10.5 h
[1]; [3]
  Decay constant: 0.050
  half-life: 13.8 h
[1]; Lung Left Lobe, 5-lipid LNP of Table 1, CD1 male mice
  Decay constant: 0.094
[1]; [4]
  Decay constant: 0.073
  half-life: 9.51 h
[1]; [5]
  Decay constant: 0.191
  half-life: 3.63 h
[1]; [6]
  Decay constant: 0.136
  half-life: 5.09 h

## bleomycin
P21
  senescence (P21): Increase in senescence
